Earlier results as cited in patent publication US20080260785A1, “PAROXETINE COMPOSITIONS” (priority 2005, published 2008).

Conditions: hydrochloride hemihydrate

In the case of `Cl.Fc1ccc([C@@H]2CCNC[C@H]2COc2ccc3c(c2)OCO3)cc1` [Paroxetine, (−)-trans-4R-(4′-fluorophenyl)-3S-[(3′,4′-methylenedioxyphenoxy)methyl]piperidine], the solubility in water is listed as 5.4 mg/mL.
